Data from US9440982B2 (Eolas Therapeutics, Inc., priority 2012, dated 2016).

Each compound was assayed against T1, OX1 (Homo sapiens, UniProt O43613) (assay: Orexin receptor cell-based functional assay, [Ca2+]i by FLIPR, CHO-OX1 cells). Conditions: Table 2; CHO-OX1 cells, EC90 of OXA; read-out: IC50 Bioactivity OX1.
T1 construct: expressed in transfected cells; host or cells: CHO (CHO-OX1, kept under selection antibiotic)
T1 sequence (O43613 1-425): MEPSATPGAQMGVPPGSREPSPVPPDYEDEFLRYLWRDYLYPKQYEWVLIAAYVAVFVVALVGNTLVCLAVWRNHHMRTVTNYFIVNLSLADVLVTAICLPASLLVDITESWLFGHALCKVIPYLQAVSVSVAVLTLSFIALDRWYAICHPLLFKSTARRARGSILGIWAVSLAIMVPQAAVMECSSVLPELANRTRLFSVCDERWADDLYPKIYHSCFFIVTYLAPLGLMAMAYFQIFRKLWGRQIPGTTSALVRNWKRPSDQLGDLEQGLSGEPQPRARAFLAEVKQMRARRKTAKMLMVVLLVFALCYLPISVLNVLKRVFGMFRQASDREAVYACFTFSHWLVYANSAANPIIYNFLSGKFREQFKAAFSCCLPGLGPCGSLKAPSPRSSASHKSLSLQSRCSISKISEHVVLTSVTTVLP
Protocol: Measurement of [Ca^2+]i using a FLIPR: CHO—OX1 or CHO—OX2 cells are seeded into black-walled clear-base 384-well plates (Costar) at a density of 20,000 cells per well in F12-K medium supplemented with 10% FBS and selection antibiotic (500 ug/ml G418 or 15 ug/ml Blasticidin) and cultured overnight. The cells are incubated with equal volume of calcium4 loading buffer (Molecular Devices, Inc.) containing 2.5 mM probenecid at 37° C. for 30 min, followed by putative OX1 or OX2 receptor antagonists (dose-range 0.1 nM-10 μM) for another 30 min.
The cells are incubated with equal volume of calcium6 loading buffer (Molecular Devices, Inc.) containing 2.5 mM probenecid at 37° C. for 2 h, followed by test compounds (dose-range 0.1 nM-10 μM) for another 30 min.

| Compound | IC50 [nM] |
| --- | --- |
| CO[C@@H]1CCCN(C(=O)c2nc(C)sc2-c2ccc(F)cc2)[C@@H]1CNc1nc2ccccc2s1 (racemic) [Example 94, rac-cis-(2-((Benzo[d]thiazol-2-ylamino)methyl)-3-methoxypiperidin-1-yl)(5-(4-fluorophenyl)-2-methylthiazol-4-yl)methanone] | 76 |
| Cc1nc(C(=O)N2C[C@H]3CCC[C@H]3C2COc2ccc(C(F)(F)F)cn2)c(-c2ccc(F)cc2)s1 (mixture of isomers) [Example 101, (5-(4-Fluorophenyl)-2-methylthiazol-4-yl)(1-(((5-(trifluoromethyl)pyridin-2-yl)oxy)methyl)hexahydrocyclopenta[c]pyrrol-2(1H)-yl)methanone] | 3000 |
| Cc1nc(C(=O)N2C[C@H]3CCC[C@H]3C2COc2nc3ccccc3o2)c(-c2ccc(F)cc2)s1 (mixture of isomers) [Example 102, (1-((Benzo[d]oxazol-2-yloxy)methyl)hexahydrocyclopenta[c]pyrrol-2(1H)-yl)(5-(4-fluorophenyl)-2-methylthiazol-4-yl)methanone] | > 1000 |
| Cc1ccc(-c2ccc(C)nc2)c(C(=O)N2CCC[C@@H](C)[C@H]2CNc2ccc(C(F)(F)F)cn2)c1 (racemic) [Example 105, rac-cis-(3-Methyl-2-(((5-(trifluoromethyl)pyridin-2-yl)amino)methyl)piperidin-1-yl)(5-methyl-2-(6-methylpyridin-3-yl)phenyl)methanone] | 109 |
| Cc1ccc(-c2ccncc2)c(C(=O)N2CCC[C@@H](C)[C@H]2CNc2ccc(C(F)(F)F)cn2)c1 (racemic) [Example 106, rac-cis-(3-Methyl-2-(((5-(trifluoromethyl)pyridin-2-yl)amino)methyl)piperidin-1-yl)(5-methyl-2-(pyridin-4-yl)phenyl)methanone] | 40 |
| Cc1ccc(-c2cncnc2)c(C(=O)N2CCC[C@@H](C)[C@H]2CNc2ccc(C(F)(F)F)cn2)c1 (racemic) [Example 107, rac-cis-(3-Methyl-2-(((5-(trifluoromethyl)pyridin-2-yl)amino)methyl)piperidin-1-yl) (5-methyl-2-(pyrimidin-5-yl)phenyl)methanone] | 78 |
| Cc1ccc(-c2cnc(N3CCN(C)CC3)nc2)c(C(=O)N2CCC[C@@H](C)[C@H]2CNc2ccc(C(F)(F)F)cn2)c1 (racemic) [Example 109, rac-cis-(3-Methyl-2-(((5-(trifluoromethyl)pyridin-2-yl)amino)methyl)piperidin-1-yl)(5-methyl-2-(2-(4-methylpiperazin-1-yl)pyrimidin-5-yl)phenyl)methanone] | > 1000 |
| Cc1ccc(-c2ccc(N3CCN(C)CC3)nc2)c(C(=O)N2CCC[C@@H](C)[C@H]2CNc2ccc(C(F)(F)F)cn2)c1 (racemic) [Example 110, rac-cis-(3-Methyl-2-(((5-(trifluoromethyl)pyridin-2-yl)amino)methyl)piperidin-1-yl)(5-methyl-2-(6-(4-methylpiperazin-1-yl)pyridin-3-yl)phenyl)methanone] | > 1000 |
| Cc1ccc(-c2cnn(CCN3CCOCC3)c2)c(C(=O)N2CCC[C@@H](C)[C@H]2CNc2ccc(C(F)(F)F)cn2)c1 (racemic) [Example 111, rac-cis-(3-Methyl-2-(((5-(trifluoromethyl)pyridin-2-yl)amino)methyl)piperidin-1-yl)(5-methyl-2-(1-(2-morpholinoethyl)-1H-pyrazol-4-yl)phenyl)methanone] | > 1000 |
| Cc1ccc(-n2ccnc2)c(C(=O)N2CCC[C@@H](C)[C@H]2CNc2ccc(C(F)(F)F)cn2)c1 (racemic) [Example 116, rac-cis-(2-(1H-Imidazol-1-yl)-5-methylphenyl)(3-methyl-2-(((5-(trifluoromethyl)pyridin-2-yl)amino)methyl)piperidin-1-yl)methanone] | < 100 |
| C[C@@H]1CCCN(C(=O)c2ccccc2Oc2ccccc2)[C@@H]1CNc1ccc(C(F)(F)F)cn1 (racemic) [Example 118, rac-cis-(3-Methyl-2-(((5-(trifluoromethyl)pyridin-2-yl)amino)methyl)piperidin-1-yl) (2-phenoxyphenyl)methanone] | 262 |
| C[C@@H]1CCCN(C(=O)c2ccnn2-c2ccccc2)[C@@H]1CNc1ccc(C(F)(F)F)cn1 (racemic) [Example 119, rac-cis-(3-Methyl-2-(((5-(trifluoromethyl)pyridin-2-yl)amino)methyl)piperidin-1-yl)(1-phenyl-1H-pyrazol-5-yl)methanone] | 400 |
| Cc1nc(C(=O)N2CCC[C@@H](C)[C@H]2CNc2nccnc2Cl)c(-c2ccc(F)cc2)s1 (racemic) [Example 121, rac-cis-(2-(((3-Chloropyrazin-2-yl)amino)methyl)-3-methylpiperidin-1-yl)(5-(4-fluorophenyl)-2-methylthiazol-4-yl)methanone] | > 1000 |
| C[C@@H]1CCCN(C(=O)c2ccccc2OC(F)(F)F)[C@@H]1CNc1ncc(Cl)cn1 (racemic) [Example 122, rac-cis-(2-(((5-Chloropyrimidin-2-yl)amino)methyl)-3-methylpiperidin-1-yl)(2-(trifluoromethoxy)phenyl)methanone] | 3500 |
| Cc1nc(C(=O)N2CCC[C@@H](C)[C@H]2CNc2cncc(Cl)n2)c(-c2ccc(F)cc2)s1 (racemic) [Example 123, rac-cis-(2-(((6-Chloropyrazin-2-yl)amino)methyl)-3-methylpiperidin-1-yl)(5-(4-fluorophenyl)-2-methylthiazol-4-yl)methanone] | 3600 |
| O=C(NCC1C2CCC(CC2)N1C(=O)c1ccccc1-c1ccccc1)c1cccc2cccnc12 (racemic) [Example 140, N-(((1s,4s)-2-([1,1′-Biphenyl]-2-carbonyl)-2-azabicyclo[2.2.2]octan-3-yl)methyl)quinoline-8-carboxamide] | < 100 |

Further lines, results first:

| IC50 [nM] | Compound |
| --- | --- |
| 18 | Cc1nc(C(=O)N2CCC[C@H](C)[C@H]2CNc2ncc(Cl)cn2)c(-c2ccc(F)cc2)s1 (racemic) [Example 96, rac-trans-(2-(((5-Chloropyrimidin-2-yl)amino)methyl)-3-methylpiperidin-1-yl)(5-(4-fluorophenyl)-2-methylthiazol-4-yl)methanone] |
| 9 | Cc1ccc(-n2nccn2)c(C(=O)N2CCC[C@@H](C)[C@H]2CNc2ncc(C(F)(F)F)cn2)c1 (racemic) [Example 97, rac-cis-(3-Methyl-2-(((5-(trifluoromethyl)pyrimidin-2-yl)amino)methyl)piperidin-1-yl)(5-methyl-2-(2H-1,2,3-triazol-2-yl)phenyl)methanone] |
| 8 | Cc1nc(C(=O)N2C[C@H]3CCC[C@H]3C2CNc2nc3ccccc3o2)c(-c2ccc(F)cc2)s1 (mixture of isomers) [Example 100, (1-((Benzo[d]oxazol-2-ylamino)methyl)hexahydrocyclopenta[c]pyrrol-2(1H)-yl)(5-(4-fluorophenyl)-2-methylthiazol-4-yl)methanone] |
| 1 | Cc1ccc(-c2cccnc2)c(C(=O)N2CCC[C@@H](C)[C@H]2CNc2ccc(C(F)(F)F)cn2)c1 (racemic) [Example 104, rac-cis-(3-Methyl-2-(((5-(trifluoromethyl)pyridin-2-yl)amino)methyl)piperidin-1-yl) (5-methyl-2-(pyridin-3-yl)phenyl)methanone] |
| 13 | Cc1ccc(-c2ccnn2C)c(C(=O)N2CCC[C@@H](C)[C@H]2CNc2ccc(C(F)(F)F)cn2)c1 (racemic) [Example 108, rac-cis-(3-Methyl-2-(((5-(trifluoromethyl)pyridin-2-yl)amino)methyl)piperidin-1-yl)(5-methyl-2-(1-methyl-1H-pyrazol-5-yl)phenyl)methanone] |
| 17 | Cc1ccc(-c2ncccn2)c(C(=O)N2CCC[C@@H](C)[C@H]2CNc2ccc(C(F)(F)F)cn2)c1 (racemic) [Example 112, rac-cis-(3-Methyl-2-(((5-(trifluoromethyl)pyridin-2-yl)amino)methyl)piperidin-1-yl)(5-methyl-2-(pyrimidin-2-yl)phenyl)methanone] |
| 25 | Cc1ccc(-c2ncco2)c(C(=O)N2CCC[C@@H](C)[C@H]2CNc2ccc(C(F)(F)F)cn2)c1 (racemic) [Example 113, rac-cis-(3-Methyl-2-(((5-(trifluoromethyl)pyridin-2-yl)amino)methyl)piperidin-1-yl)(5-methyl-2-(oxazol-2-yl)phenyl)methanone] |
| 10 | Cc1ccc(-n2ccnn2)c(C(=O)N2CCC[C@@H](C)[C@H]2CNc2ccc(C(F)(F)F)cn2)c1 (racemic) [Example 115, rac-cis-(3-Methyl-2-(((5-(trifluoromethyl)pyridin-2-yl)amino)methyl)piperidin-1-yl)(5-methyl-2-(1H-1,2,3-triazol-1-yl)phenyl)methanone] |
| 38 | Cc1ccc(-n2cncn2)c(C(=O)N2CCC[C@@H](C)[C@H]2CNc2ccc(C(F)(F)F)cn2)c1 (racemic) [Example 117, rac-cis-(3-Methyl-2-(((5-(trifluoromethyl)pyridin-2-yl)amino)methyl)piperidin-1-yl)(5-methyl-2-(1H-1,2,4-triazol-1-yl)phenyl)methanone] |
